Laboratory results published in article PMC10567728, “Targeted imaging of uPAR expression in vivo with cyclic AE105 variants” (Scientific Reports, 2023).
Values joined by “and” are separate entries in the source; they are usually repeats but may differ in a detail not shown here. Equal values may be shown once. Positions of bridges follow the written chain, without caps; N, C: chain ends. Non-standard residues stand in square brackets, D forms with d. Residues, ends and D or L forms follow the SMILES beside them. *: point of attachment. DOTA = O=C(O)CN1CCN(CC(=O)O)CCN(CC(=O)*)CCN(CC(=O)O)CC1; Cha = N[C@@H](CC1CCCCC1)C(=O)O

Legend:
[1] = biological target: T1, uPAR (Homo sapiens, UniProt Q03405); assay: SPR real-time binding kinetics, peptides in solution and immobilised uPAR; details: for kon: read-out: kon
T1 construct: Recombinant human uPAR^1–283 was expressed; made in house; host or cells: Drosophila melanogaster S2 cells
Procedure: The real-time binding kinetics of uPAR•peptide interactions were measured with SPR using a Biacore T200™(Cytiva); essentially as described in[56],[77]. In brief, uPAR was covalently immobilised on a CM5 sensor chip via amine coupling resulting in a surface density of 1157–1581 RU (~ 33–44 fmol/mm^2). The binding kinetics for the peptides to immobilised uPAR were measured using a single cycle protocol. In this setup, peptides were injected as five serial two-fold dilutions with a contact time of 200 s. After the last analyte injection, the dissociation time was set to 1000 s. The sensor chip was regenerated with two consecutive injections of 0.1 M acetic acid in 0.5 M NaCl. All experiments were conducted at 20 °C with a flow rate of 50 µL/min in 10 mM HEPES, 150 mM NaCl, 3 mM EDTA, and 0.05% (v/v) surfactant P-20 at pH 7.4. The kinetic rate constants (kon and koff) were determined by non-linear regression fitting of the curves to the simple bimolecular interaction model (BiacoreT200 Evaluation™ 3.0 software).

[2] = biological target: T1, uPAR; assay: Nano-DSF thermal stability of uPAR•peptide complexes; details: for Tm (apparent melting temperature of uPAR•peptide complex): 15 µM uPAR, 30 µM peptide, PBS pH 7.4, n = 3
Procedure: The thermal stability of the uPAR•peptide complexes was analyzed with Nano-DSF using a Prometheus NT.48™ (Nanotemper). uPAR (15 µM) was mixed with twofold excess of peptide (30 µM) in PBS pH 7.4 and incubated for 15 min at RT to ensure complex formation. Samples containing either 15 µM uPAR or 30 µM of each peptide were included as controls. The samples were loaded into standard capillaries and in triplicates. To unfold the proteins, the samples were exposed to an increasing temperature gradient from 20 to 95 °C with a ramping rate of 1 °C/min. The excitation power was set to 50% (Ex.280 nm) and the fluorescence emission collected at 330 nm and 350 nm. The melting temperatures of the complexes were determined in the PR.ThermControl software (Nanotemper) from the first derivative of the fluorescence ratio (350 nm/330 nm).

[3] = biological target: T2, uPAR•uPA interaction (Homo sapiens, UniProt Q03405); assay: SPR competition assay of the uPAR•uPA interaction; assay type: binding; details: for IC50: competition of uPAR•uPA interaction, 2 nM uPAR, 20 °C, n = 3
T2 construct: Recombinant human uPAR^1–283 was expressed; made in house; host or cells: Drosophila melanogaster S2 cells
Procedure: The IC50-values of antagonistic peptides on the uPAR•uPA interaction were determined with SPR using a Biacore T200™ or Biacore 3000™ instruments (Cytiva) essentially as described[4],[56],[77]. In brief, we immobilized high levels of pro-uPA^S356A (0.1 pmol pro-uPA/mm^2) on a CM5 sensor chip via amine coupling. The experiments were conducted by injecting 2 nM uPAR in presence of a threefold dilution series of a given antagonistic peptide for 300 s with a flow rate of 50 µL/min at 20 °C. The high immobilization levels result in binding conditions that are entirely controlled by mass transport limitations (MTL). Accordingly, the observed association rates (vobs) are directly proportional to the concentrations of binding-active uPAR in solution. To determine the IC50, we also measured a standard curve of uPAR binding (a twofold dilution series of 0.06 to 2 nM uPAR, linear due to MTL). The running buffer was 10 mM HEPES, 150 mM NaCl, 3 mM EDTA, and 0.05% (v/v) surfactant P-20 at pH 7.4, and the regeneration buffer was 0.1 M acetic acid in 0.5 M NaCl.

[4] = single cycle SPR, immobilised uPAR, 20 °C
[5] = single cycle SPR, immobilised uPAR, 20 °C, 1:1 model
[6] = [63Cu]-DOTA labelled peptides, single-cycle SPR

T1 sequence (Q03405 23-305): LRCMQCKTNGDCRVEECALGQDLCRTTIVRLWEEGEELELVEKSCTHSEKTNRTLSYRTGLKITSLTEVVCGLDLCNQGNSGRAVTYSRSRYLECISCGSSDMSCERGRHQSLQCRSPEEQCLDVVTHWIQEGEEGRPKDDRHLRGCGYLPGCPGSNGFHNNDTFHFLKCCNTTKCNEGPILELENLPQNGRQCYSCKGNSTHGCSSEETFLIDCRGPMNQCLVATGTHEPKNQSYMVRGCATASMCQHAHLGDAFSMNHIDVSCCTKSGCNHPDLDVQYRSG
T2 sequence (Q03405 23-305): as above

| Structure (SMILES) | koff [1, 4] [s⁻¹] | kon [1, 4] [M⁻¹ s⁻¹] | Kd [1, 5] | IC50 [3] [nM] | Tm (apparent melting temperature of uPAR•peptide complex) [2] | other results |
| --- | --- | --- | --- | --- | --- | --- |
| CC(C)C[C@@H]1NC(=O)[C@H](Cc2ccc(O)cc2)NC(=O)[C@H](NC(=O)[C@@H](CO)NC(=O)[C@H](Cc2ccccc2)NC(=O)[C@H](CC2CCCCC2)NC(=O)[C@H](CC(=O)O)NC(=O)CNC(=O)CNC(=O)[C@@H](CO)NC(=O)CNC(=O)[C@H](CCC(=O)O)NC(=O)[C@@H](N)CCC(=O)O)CSSC[C@@H](C(N)=O)NC(=O)[C@H](Cc2c[nH]c3ccccc23)NC1=O [compound 11] (H-EEG[dS]GGD[Cha]F[dS][dC]YLWC-NH2; disulfide 11-15; N-terminus assumed) | 0.005015 ± 8e-06 | 500000 ± 2000 |  |  | ~ 65 °C |  |
| CC(C)C[C@H](NC(=O)[C@H](Cc1ccc(O)cc1)NC(=O)[C@@H](CCCNC(=N)N)NC(=O)[C@@H](CO)NC(=O)[C@H](Cc1ccccc1)NC(=O)[C@H](CC1CCCCC1)NC(=O)[C@@H](N)CC(=O)O)C(=O)N[C@@H](Cc1c[nH]c2ccccc12)C(=O)N[C@@H](CO)C(N)=O [compound 8] | 0.000998 ± 1e-06 | 1.89e+06 ± 3000 | 0.53 nM | 2.1 ± 0.1 |  |  |
| CC(C)C[C@H](NC(=O)[C@H](Cc1ccc(O)cc1)NC(=O)[C@@H](CO)NC(=O)[C@@H](CO)NC(=O)[C@H](Cc1ccccc1)NC(=O)[C@H](CC1CCCCC1)NC(=O)[C@H](CC(=O)O)NC(=O)CNC(=O)CNC(=O)[C@@H](CO)NC(=O)CNC(=O)[C@H](CCC(=O)O)NC(=O)[C@@H](N)CCC(=O)O)C(=O)N[C@@H](Cc1c[nH]c2ccccc12)C(=O)N[C@@H](CO)C(=O)O [compound 5] (H-EEG[dS]GGD[Cha]F[dS][dS]YLWS-OH; N-terminus assumed) | 0.054 ± 0.0003 | 201000 ± 2000 |  |  |  | fold decrease in potency ([3]; compared to (4)): 7.8 fold |
| CC(C)C[C@H](NC(=O)[C@H](Cc1ccc(O)cc1)NC(=O)[C@@H](CCCNC(=N)N)NC(=O)[C@@H](CO)NC(=O)[C@H](Cc1ccccc1)NC(=O)[C@H](CC1CCCCC1)NC(=O)[C@H](CC(=O)O)NC(=O)CNC(=O)CNC(=O)[C@@H](CO)NC(=O)CNC(=O)[C@H](CCC(=O)O)NC(=O)[C@@H](N)CCC(=O)O)C(=O)N[C@@H](Cc1c[nH]c2ccccc12)C(=O)N[C@@H](CO)C(N)=O [compound 10] (H-EEG[dS]GGD[Cha]F[dS][dR]YLWS-NH2; N-terminus assumed) | 0.001497 ± 2e-06 | 595000 ± 1000 |  |  | ~ 65 °C | fold increase in potency on C-terminal amidation ([3]; (8) vs (1) and (10) vs (4)): 5.6 fold |
| CC(C)C[C@@H]1NC(=O)[C@H](Cc2ccc(O)cc2)NC(=O)[C@H](NC(=O)[C@@H](CO)NC(=O)[C@H](Cc2ccccc2)NC(=O)[C@H](CC2CCCCC2)NC(=O)[C@@H](N)CC(=O)O)CSSC[C@@H](C(=O)O)NC(=O)[C@H](Cc2c[nH]c3ccccc23)NC1=O [compound 3] (H-D[Cha]F[dS][dC]YLWC-OH; disulfide 5-9; N-terminus assumed) | 0.00365 ± 1e-05 | 1.098e+06 ± 4000 | 3.32 nM | 6.5 ± 0.3 |  |  |
| CC(C)C[C@@H]1NC(=O)[C@H](Cc2ccc(O)cc2)NC(=O)[C@H](NC(=O)[C@@H](CO)NC(=O)[C@H](Cc2ccccc2)NC(=O)[C@H](CC2CCCCC2)NC(=O)[C@@H](N)CC(=O)O)CSSC[C@@H](C(N)=O)NC(=O)[C@H](Cc2c[nH]c3ccccc23)NC1=O [compound 9] (H-D[Cha]F[dS][dC]YLWC-NH2; disulfide 5-9; N-terminus assumed) | 0.002063 ± 3e-06 | 712000 ± 2000 | 2.9 nM | 8.9 ± 0.3 |  |  |
| CC(C)C[C@H](NC(=O)[C@H](Cc1ccc(O)cc1)NC(=O)[C@@H](CCCNC(=N)N)NC(=O)[C@@H](CO)NC(=O)[C@H](Cc1ccccc1)NC(=O)[C@H](CC1CCCCC1)NC(=O)[C@@H](N)CC(=O)O)C(=O)N[C@@H](Cc1c[nH]c2ccccc12)C(=O)N[C@@H](CO)C(=O)O [compound 1, AE105] | 0.00396 ± 1e-05 | 1.568e+06 ± 5000 | 2.52 nM | 8.8 ± 0.2 |  |  |
| CC(C)C[C@H](NC(=O)[C@H](Cc1ccc(O)cc1)NC(=O)[C@@H](CCCCN)NC(=O)[C@@H](CO)NC(=O)[C@H](Cc1ccccc1)NC(=O)[C@H](CC1CCCCC1)NC(=O)[C@@H](N)CC(=O)O)C(=O)N[C@@H](Cc1c[nH]c2ccccc12)C(=O)N[C@@H](CO)C(=O)O [compound 2] (H-D[Cha]F[dS][dK]YLWS-OH; N-terminus assumed) | 0.0298 ± 0.0001 | 594000 ± 3000 | 50.2 nM | 50.9 ± 2 |  |  |
| CC(C)C[C@@H]1NC(=O)[C@@H]2CCCN2C(=O)[C@H](NC(=O)[C@@H](CO)NC(=O)[C@H](Cc2ccccc2)NC(=O)[C@H](CC2CCCCC2)NC(=O)[C@H](CC(=O)O)NC(=O)CNC(=O)CNC(=O)[C@@H](CO)NC(=O)CNC(=O)[C@H](CCC(=O)O)NC(=O)[C@@H](N)CCC(=O)O)CSSC[C@@H](C(=O)O)NC(=O)[C@H](Cc2c[nH]c3ccccc23)NC1=O [compound 7] (H-EEG[dS]GGD[Cha]F[dS][dC]PLWC-OH; disulfide 11-15 (inferred); N-terminus assumed) |  |  |  |  |  | KD [1, 5]: N.B |

Second part, led by results:

| koff [1, 4] [s⁻¹] | kon [1, 4] [M⁻¹ s⁻¹] | Kd [1, 5] | IC50 [3] [nM] | Structure (SMILES) | Tm (apparent melting temperature of uPAR•peptide complex) [2] | other results |
| --- | --- | --- | --- | --- | --- | --- |
| 0.001367 ± 1e-06 | 429700 ± 400 | 3.18 nM | 4.8 ± 0.2 | CC(C)C[C@H](NC(=O)[C@H](Cc1ccc(O)cc1)NC(=O)[C@@H](CCCNC(=N)N)NC(=O)[C@@H](CO)NC(=O)[C@H](Cc1ccccc1)NC(=O)[C@H](CC1CCCCC1)NC(=O)[C@H](CC(=O)O)NC(=O)CNC(=O)CNC(=O)[C@@H](CO)NC(=O)CNC(=O)[C@H](CCC(=O)O)NC(=O)[C@H](CCC(=O)O)NC(=O)CN1CCN(CC(=O)O)CCN(CC(=O)O)CCN(CC(=O)O)CC1)C(=O)N[C@@H](Cc1c[nH]c2ccccc12)C(=O)N[C@@H](CO)C(N)=O [10b] ({DOTA}-EEG[dS]GGD[Cha]F[dS][dR]YLWS-NH2) | 66.2 ± 0.3 °C | increase in apparent Tm ([2]; DOTA-conjugated peptides with spacer, compared to (4b)): 6–14 °C |
| 0.0044 ± 1e-05 | 352000 ± 1000 | 12.5 nM | 10.9 ± 0.3 | CC(C)C[C@@H]1NC(=O)[C@H](Cc2ccc(O)cc2)NC(=O)[C@H](NC(=O)[C@@H](CO)NC(=O)[C@H](Cc2ccccc2)NC(=O)[C@H](CC2CCCCC2)NC(=O)[C@H](CC(=O)O)NC(=O)CN2CCN(CC(=O)O)CCN(CC(=O)O)CCN(CC(=O)O)CC2)CSSC[C@@H](C(=O)O)NC(=O)[C@H](Cc2c[nH]c3ccccc23)NC1=O [3b] ({DOTA}-D[Cha]F[dS][dC]YLWC-OH; disulfide 5-9) | ~ 70 °C | increase in apparent Tm ([2]; DOTA-conjugated peptides, compared to (1b)): approximately 11 °C |
| 0.003562 ± 3e-06 | 717000 ± 1000 | 5 nM and 4.97 nM | 7.7 ± 0.2 | CC(C)C[C@@H]1NC(=O)[C@H](Cc2ccc(O)cc2)NC(=O)[C@H](NC(=O)[C@@H](CO)NC(=O)[C@H](Cc2ccccc2)NC(=O)[C@H](CC2CCCCC2)NC(=O)[C@H](CC(=O)O)NC(=O)CNC(=O)CNC(=O)[C@@H](CO)NC(=O)CNC(=O)[C@H](CCC(=O)O)NC(=O)[C@H](CCC(=O)O)NC(=O)CN2CCN(CC(=O)O)CCN(CC(=O)O)CCN(CC(=O)O)CC2)CSSC[C@@H](C(N)=O)NC(=O)[C@H](Cc2c[nH]c3ccccc23)NC1=O [11b] ({DOTA}-EEG[dS]GGD[Cha]F[dS][dC]YLWC-NH2; disulfide 11-15) |  | Kd [1, 6]: 22.6 nM; koff [1, 6]: 0.0036 ± 1e-05 s⁻¹ |
